The compounds below were run against TBK1 (Homo sapiens (Human), UniProt Q9UHD2) (assay: TBK1 low ATP kinase assay (in vitro assay 1)). Details: in vitro assay 1, read-out: TBK1 low ATP kinase assay IC50.
Assay type: biochemical

Sequence of TBK1 (Q9UHD2 whole entry): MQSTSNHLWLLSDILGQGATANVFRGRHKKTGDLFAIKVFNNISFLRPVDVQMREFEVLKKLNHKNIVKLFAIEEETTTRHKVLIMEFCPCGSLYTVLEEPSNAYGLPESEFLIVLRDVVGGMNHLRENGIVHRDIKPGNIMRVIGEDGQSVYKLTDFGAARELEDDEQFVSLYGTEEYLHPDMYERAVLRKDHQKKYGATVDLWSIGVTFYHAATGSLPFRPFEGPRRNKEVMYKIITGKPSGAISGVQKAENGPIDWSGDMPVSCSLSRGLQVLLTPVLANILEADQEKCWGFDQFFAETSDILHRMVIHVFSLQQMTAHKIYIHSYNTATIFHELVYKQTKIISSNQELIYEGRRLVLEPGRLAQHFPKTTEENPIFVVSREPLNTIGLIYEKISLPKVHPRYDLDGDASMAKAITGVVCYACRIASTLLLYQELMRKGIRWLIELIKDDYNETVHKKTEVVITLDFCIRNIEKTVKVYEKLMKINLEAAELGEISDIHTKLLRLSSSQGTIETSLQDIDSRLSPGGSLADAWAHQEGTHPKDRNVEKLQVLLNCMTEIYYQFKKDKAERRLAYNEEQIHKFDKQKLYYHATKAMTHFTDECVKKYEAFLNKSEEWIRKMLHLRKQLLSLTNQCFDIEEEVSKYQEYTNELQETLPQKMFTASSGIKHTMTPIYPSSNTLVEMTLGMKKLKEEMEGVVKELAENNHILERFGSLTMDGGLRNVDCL

SMILES	IC50
COc1nccc(-c2ccc3nc(Nc4cc(CN5CCN(C(=O)C6CCC6)CC5)ccn4)[nH]c3c2)n1 [Example 25.01.02, cyclobutyl{4-[(2-{[6-(2-methoxypyrimidin-4-yl)-1H-benzimidazol-2-yl]amino}pyridin-4-yl)methyl]piperazin-1-yl}methanone]	218 nM
COc1nccc(-c2ccc3nc(Nc4cc(CN5CCN(C(=O)CC6CC6)CC5)ccn4)[nH]c3c2)n1 [Example 25.01.03, 2-cyclopropyl-1-{4-[(2-{[6-(2-methoxypyrimidin-4-yl)-1H-benzimidazol-2-yl]amino}pyridin-4-yl)methyl]piperazin-1-yl}ethanone]	96.7 nM
COc1nccc(-c2ccc3nc(Nc4cc(CN5CCN(C(=O)CC(F)(F)F)CC5)ccn4)[nH]c3c2)n1 [Example 25.01.04, 3,3,3-trifluoro-1-{4-[(2-{[6-(2-methoxypyrimidin-4-yl)-1H-benzimidazol-2-yl]amino}pyridin-4-yl)methyl]piperazin-1-yl}propan-1-one]	79 nM
COc1nccc(-c2ccc3nc(Nc4cc(CN5CCN(C(=O)C6CC6)CC5)ccn4)[nH]c3c2)n1 [Example 25.01.05, cyclopropyl{4-[(2-{[6-(2-methoxypyrimidin-4-yl)-1H-benzimidazol-2-yl]amino}pyridin-4-yl)methyl]piperazin-1-yl}methanone]	64.5 nM
COc1nccc(-c2ccc3nc(Nc4cc(CN5CCN(C(=O)C6CC6)CC5)cc(C(F)(F)F)n4)[nH]c3c2)n1 [Example 25.02.01, cyclopropyl(4-{[2-{[6-(2-methoxypyrimidin-4-yl)-1H-benzimidazol-2-yl]amino}-6-(trifluoromethyl)pyridin-4-yl]methyl}piperazin-1-yl)methanone]	346 nM
CCOc1nccc(-c2ccc3nc(Nc4cc(CN5CCN(C(=O)OC(C)(C)C)CC5)ccn4)[nH]c3c2)n1 [Example 26.01.01, tert-butyl 4-[(2-{[6-(2-ethoxypyrimidin-4-yl)-1H-benzimidazol-2-yl]amino}pyridin-4-yl)methyl]piperazine-1-carboxylate]	35.7 nM
CCOc1nccc(-c2ccc3nc(Nc4cc(CN5CCN(C(=O)C6CC6)CC5)ccn4)[nH]c3c2)n1 [Example 26.01.02, cyclopropyl{4-[(2-{[6-(2-ethoxypyrimidin-4-yl)-1H-benzimidazol-2-yl]amino}pyridin-4-yl)methyl]piperazin-1-yl}methanone]	8.58 nM
CCOc1nccc(-c2ccc3nc(Nc4cc(CN5CCN(C(=O)CC(F)(F)F)CC5)ccn4)[nH]c3c2)n1 [Example 26.01.03, 1-{4-[(2-{[6-(2-ethoxypyrimidin-4-yl)-1H-benzimidazol-2-yl]amino}pyridin-4-yl)methyl]piperazin-1-yl}-3,3,3-trifluoropropan-1-one]	13 nM
CCOc1nccc(-c2ccc3nc(Nc4cc(CN5CCN(C(=O)C6CCC6)CC5)ccn4)[nH]c3c2)n1 [Example 26.01.04, cyclobutyl{4-[(2-{[6-(2-ethoxypyrimidin-4-yl)-1H-benzimidazol-2-yl]amino}pyridin-4-yl)methyl]piperazin-1-yl}methanone]	11.6 nM
CCOc1nccc(-c2ccc3nc(Nc4cc(CN5CCN(C(=O)CC6CC6)CC5)ccn4)[nH]c3c2)n1 [Example 26.01.05, 2-cyclopropyl-1-{4-[(2-{[6-(2-ethoxypyrimidin-4-yl)-1H-benzimidazol-2-yl]amino}pyridin-4-yl)methyl]piperazin-1-yl}ethanone]	14.1 nM
Cc1cc(-c2ccc3nc(Nc4cc(CN5CCN(C(=O)C6CCC6)CC5)ccn4)[nH]c3c2)ncn1 [Example 30.01.02, cyclobutyl{4-[(2-{[6-(6-methylpyrimidin-4-yl)-1H-benzimidazol-2-yl]amino}pyridin-4-yl)methyl]piperazin-1-yl}methanone]	18.5 nM
Cc1cc(-c2ccc3nc(Nc4cc(CN5CCN(C(=O)CC6CC6)CC5)ccn4)[nH]c3c2)ncn1 [Example 30.01.03, 2-cyclopropyl-1-{4-[(2-{[6-(6-methylpyrimidin-4-yl)-1H-benzimidazol-2-yl]amino}pyridin-4-yl)methyl]piperazin-1-yl}ethanone]	16.9 nM
Cc1cc(-c2ccc3nc(Nc4cc(CN5CCN(C(=O)C6CC6)CC5)ccn4)[nH]c3c2)ncn1 [Example 30.01.04, cyclopropyl{4-[(2-{[6-(6-methylpyrimidin-4-yl)-1H-benzimidazol-2-yl]amino}pyridin-4-yl)methyl]piperazin-1-yl}methanone]	12.3 nM
COc1cc(-c2ccc3nc(Nc4cc(CN5CCN(C(=O)OC(C)(C)C)CC5)ccn4)[nH]c3c2)ncn1 [Example 34.01.01, tert-butyl 4-[(2-{[6-(6-methoxypyrimidin-4-yl)-1H-benzimidazol-2-yl]amino}pyridin-4-yl)methyl]piperazine-1-carboxylate]	50.6 nM
COc1cncnc1-c1ccc2nc(Nc3cc(CN4CCN(C(=O)CC(F)(F)F)CC4)ccn3)[nH]c2c1 [Example 35.01.01, 3,3,3-trifluoro-1-{4-[(2-{[6-(5-methoxypyrimidin-4-yl)-1H-benzimidazol-2-yl]amino}pyridin-4-yl)methyl]piperazin-1-yl}propan-1-one]	18.9 nM
COc1cncnc1-c1ccc2nc(Nc3cc(CN4CCN(C(=O)C5CC5)CC4)ccn3)[nH]c2c1 [Example 35.01.02, cyclopropyl{4-[(2-{[6-(5-methoxypyrimidin-4-yl)-1H-benzimidazol-2-yl]amino}pyridin-4-yl)methyl]piperazin-1-yl}methanone]	18 nM

Continued, values first:

IC50	SMILES
164 nM	O=C(C1CC1)N1CCN(Cc2ccnc(Nc3nc4ccc(-c5ccnc(C(F)(F)F)n5)cc4[nH]3)c2)CC1 [Example 27.01, cyclopropyl(4-{[2-({6-[2-(trifluoromethyl)pyrimidin-4-yl]-1H-benzimidazol-2-yl}amino)pyridin-4-yl]methyl}piperazin-1-yl)methanone]
220 nM	O=C(C1CCC1)N1CCN(Cc2ccnc(Nc3nc4ccc(-c5ccnc(C(F)(F)F)n5)cc4[nH]3)c2)CC1 [Example 27.02, cyclobutyl(4-{[2-({6-[2-(trifluoromethyl)pyrimidin-4-yl]-1H-benzimidazol-2-yl}amino)pyridin-4-yl]methyl}piperazin-1-yl)methanone]
203 nM	O=C(CC1CC1)N1CCN(Cc2ccnc(Nc3nc4ccc(-c5ccnc(C(F)(F)F)n5)cc4[nH]3)c2)CC1 [Example 27.03, 2-cyclopropyl-1-(4-{[2-({6-[2-(trifluoromethyl)pyrimidin-4-yl]-1H-benzimidazol-2-yl}amino)pyridin-4-yl]methyl}piperazin-1-yl)ethanone]
197 nM	O=C(CC(F)(F)F)N1CCN(Cc2ccnc(Nc3nc4ccc(-c5ccnc(C(F)(F)F)n5)cc4[nH]3)c2)CC1 [Example 27.04, 3,3,3-trifluoro-1-(4-{[2-({6-[2-(trifluoromethyl)pyrimidin-4-yl]-1H-benzimidazol-2-yl}amino)pyridin-4-yl]methyl}piperazin-1-yl)propan-1-one]
111 nM	CCc1nccc(-c2ccc3nc(Nc4cc(CN5CCN(C(=O)OC(C)(C)C)CC5)ccn4)[nH]c3c2)n1 [Example 28.01, tert-butyl 4-[(2-{[6-(2-ethylpyrimidin-4-yl)-1H-benzimidazol-2-yl]amino}pyridin-4-yl)methyl]piperazine-1-carboxylate]
86.8 nM	Cc1cc(-c2ccc3nc(Nc4cc(CN5CCN(C(=O)CC(F)(F)F)CC5)ccn4)[nH]c3c2)nc(C)n1 [Example 31.01, 1-{4-[(2-{[6-(2,6-dimethylpyrimidin-4-yl)-1H-benzimidazol-2-yl]amino}pyridin-4-yl)methyl]piperazin-1-yl}-3,3,3-trifluoropropan-1-one]
77 nM	Cc1cc(-c2ccc3nc(Nc4cc(CN5CCN(C(=O)C6CC6)CC5)ccn4)[nH]c3c2)nc(C)n1 [Example 31.02, cyclopropyl{4-[(2-{[6-(2,6-dimethylpyrimidin-4-yl)-1H-benzimidazol-2-yl]amino}pyridin-4-yl)methyl]piperazin-1-yl}methanone]
951 nM	Cc1ncnc(-c2ccc3nc(Nc4cc(CN5CCN(C(=O)C6CC6)CC5)ccn4)[nH]c3c2)c1C [Example 32.01, cyclopropyl{4-[(2-{[6-(5,6-dimethylpyrimidin-4-yl)-1H-benzimidazol-2-yl]amino}pyridin-4-yl)methyl]piperazin-1-yl}methanone]
1170 nM	Cc1ncnc(-c2ccc3nc(Nc4cc(CN5CCN(C(=O)CC(F)(F)F)CC5)ccn4)[nH]c3c2)c1C [Example 32.02, 1-{4-[(2-{[6-(5,6-dimethylpyrimidin-4-yl)-1H-benzimidazol-2-yl]amino}pyridin-4-yl)methyl]piperazin-1-yl}-3,3,3-trifluoropropan-1-one]
5190 nM	CC(=O)N1CCN(Cc2ccnc(Nc3nc4ccc(-c5ncnc(C)c5C)cc4[nH]3)c2)CC1 [Example 32.03, 1-{4-[(2-{[6-(5,6-dimethylpyrimidin-4-yl)-1H-benzimidazol-2-yl]amino}pyridin-4-yl)methyl]piperazin-1-yl}ethanone]
3540 nM	Cc1ncc(C)c(-c2ccc3nc(Nc4cc(CN5CCN(C(=O)OC(C)(C)C)CC5)ccn4)[nH]c3c2)n1 [Example 33.01, tert-butyl 4-[(2-{[6-(2,5-dimethylpyrimidin-4-yl)-1H-benzimidazol-2-yl]amino}pyridin-4-yl)methyl]piperazine-1-carboxylate]
1590 nM	Cc1ncc(C)c(-c2ccc3nc(Nc4cc(CN5CCN(C(=O)CC(F)(F)F)CC5)ccn4)[nH]c3c2)n1 [Example 33.02, 1-{4-[(2-{[6-(2,5-dimethylpyrimidin-4-yl)-1H-benzimidazol-2-yl]amino}pyridin-4-yl)methyl]piperazin-1-yl}-3,3,3-trifluoropropan-1-one]
1500 nM	Cc1ncc(C)c(-c2ccc3nc(Nc4cc(CN5CCN(C(=O)C6CC6)CC5)ccn4)[nH]c3c2)n1 [Example 33.03, cyclopropyl{4-[(2-{[6-(2,5-dimethylpyrimidin-4-yl)-1H-benzimidazol-2-yl]amino}pyridin-4-yl)methyl]piperazin-1-yl}methanone]
2120 nM	Cc1ncc(C)c(-c2ccc3nc(Nc4cc(CN5CCN(C(=O)C6CCC6)CC5)ccn4)[nH]c3c2)n1 [Example 33.04, cyclobutyl{4-[(2-{[6-(2,5-dimethylpyrimidin-4-yl)-1H-benzimidazol-2-yl]amino}pyridin-4-yl)methyl]piperazin-1-yl}methanone]
